In brackets after ≈: the same amount, converted by molar mass. Where a SMILES comes first, the peptide text is derived from it. Bridges are numbered along the chain shown (N, C = ends). [ ]: non-standard residue; d: D form. Hyp = O=C(O)[C@@H]1C[C@@H](O)CN1; Pen = CC(C)(S)[C@H](N)C(=O)O; dDab = NCC[C@@H](N)C(=O)O; Nle = CCCC[C@H](N)C(=O)O; Dab = NCC[C@H](N)C(=O)O
Key:
LptAm = target: T1, LptAm (Escherichia coli, UniProt P0ADV1); assay: biochemical; assay type: binding, E. coli
T1 construct: His6-GB1 (N, cleaved yes); made in house; host or cells: E. coli BL21 (DE3)
Method: (§1) Protein stocks were purified and concentrated in buffer 1 [50 mM Na-Pi (pH 7) and 150 mM NaCl] and, if necessary, diluted to desired concentrations using buffer 2 [50 mM Na-Pi (pH 7), 150 mM NaCl, and 0.05% Tween 20]. Peptide stocks and fluorescently labeled peptide stocks were made in buffer 2. Every serial dilution consisted of 24 wells, the first well with the highest concentrate and the last well (well 24) with the lowest. First, 50 μl of buffer 2 was added to the wells 2 to 24 of each serial dilution. Then, 100 μl of concentrated unlabeled peptide/protein in their respective buffers was added to the first well. Fifty microliters were taken from the first well and added to the second well for a 1:1 serial dilution and continued for the 24 wells. […] Plates were covered with adhesive seals and left to incubate overnight at 4°C before FP measurements the next day. Anisotropy was measured using the Tecan Safire2 plate reader using a 10-nm bandwidth and setting the excitation and emission wavelengths to 635 and 670 nm, respectively. The G-factor (G) was also determined empirically as 1.094 for the instrument and included in all the anisotropy calculations.
(§2) For the indirect binding assays, r was calculated in the same manner as the direct binding assays. […] The control was subtracted from r to yield r′. Data were fit to a sigmoidal interpolation model on GraphPad Prism 9, and an IC50 was generated for each unlabeled peptide or protein measured.

LptAmQ62L = target: T2, LptAmQ62L (Escherichia coli, UniProt P0ADV1, Q62L); assay: biochemical; assay type: binding, E. coli
T2 construct: His6-GB1 (N, cleaved yes); made in house; host or cells: E. coli BL21 (DE3)
Method: as §1, §2

human red blood cells = assay: Haemolysis; assay type: cell-based; conditions: PBS-washed human red blood cells; 1 h at 200 mg/liter, 37°C; OD 540 nm; versus 100% lysis control 2.5% Triton X-100; biological replicates
Method: To test their hemolytic potential, compounds were incubated in the presence of phosphate-buffered saline (PBS)–washed human red blood cells. After 1-hour incubation at 200 mg/liter and 37°C, the samples were centrifuged (3220g), the supernatants were diluted in Dulbecco’s PBS, and optical density at 540 nm was determined. The hemolysis induced by the compound was calculated versus a 100% lysis control prepared with 2.5% Triton X-100 (table S4A).

Plasma protein binding [1] = assay type: in vitro ADME, human; conditions: human, plasma, pH 7.5
Method: (§3) After ultrafiltration, protein binding was determined by subtracting the percentage of compound in ultrafiltrate from the total amount of compound in spiked plasma (table S4A).

Plasma protein binding [2] = assay type: in vitro ADME, mouse; conditions: mouse, plasma, pH 7.5
Method: as §3

[3] = test system: E. coli ATCC 25922 LptA Q62L mutant; assay: microbe, parasite or virus in culture; conditions: CLSI method; clone harboring LptA Q62L
Method: (§4) MIC assays [Clinical and Laboratory Standards Institute (CLSI) methodology] and serial passage studies were performed as described by Luther et al. ([6]). […] Resistant mutants were isolated, and their MIC values were determined and sent to Microbes NG (Birmingham, United Kingdom) for whole-genome sequencing and bioinformatic analysis.

[4] = test system: K. pneumoniae NCTC 13443 (NDM-1) (parent / WT); assay: microbe, parasite or virus in culture; conditions: CLSI method; parent strain
Method: as §4

[5] = test system: E. coli ATCC 25922 (parent / WT); assay: microbe, parasite or virus in culture; conditions: for MIC E. coli ATCC 25922 Parent: CLSI method, parent strain
Method: as §4

[6] = test system: K. pneumoniae ATCC 43816 (parent / WT); assay: microbe, parasite or virus in culture; conditions: ATCC 43816
Method: as §4

[7] = test system: K. pneumoniae NCTC 13443 (NDM-1) LptA Q62L mutant; assay: microbe, parasite or virus in culture; conditions: for MIC K. pneumoniae NCTC 13443 (NDM-1) Q62L mutant: CLSI method, clone harboring LptA Q62L
Method: as §4

in vitro = assay type: cell-based; conditions: human
Method: The cytotoxicity of compounds was determined by determining the number of viable cells using the Sigma Cell Counting Kit-8 (WST-8). HeLa cells were incubated at 37°C and 5% CO2 for 24 hours, after which the medium was replaced with fresh medium containing dilutions of compounds. […]

[8] = test system: Klebsiella pneumoniae NCTC 13443 LptA I36S mutant; assay: microbe, parasite or virus in culture; conditions: Table S9 panel
Method: as §4

[9] = test system: Klebsiella pneumoniae ATCC 43816 LapB mutant; assay: microbe, parasite or virus in culture; conditions: Table S9 panel; other mutation
Method: as §4

[10] = test system: Klebsiella pneumoniae NCTC 13443 YejM mutant; assay: microbe, parasite or virus in culture; conditions: Table S9 panel; other mutation
Method: as §4

[11] = test system: Escherichia coli ATCC 25922 KdsD mutant; assay: microbe, parasite or virus in culture; conditions: Table S9 panel; other mutation
Method: as §4

[12] = test system: Klebsiella pneumoniae ATCC 43816 PglJ, PhnJ, ThiH mutant; assay: microbe, parasite or virus in culture; conditions: Table S9 panel; other mutation
Method: as §4

[13] = test system: Klebsiella pneumoniae ATCC 43816 LptA I36N mutant; assay: microbe, parasite or virus in culture; conditions: Table S9 panel
Method: as §4

[14] = test system: Klebsiella pneumoniae ATCC 43816 LptA L116Q mutant; assay: microbe, parasite or virus in culture; conditions: Table S9 panel
Method: as §4

[15] = test system: Escherichia coli ATCC 25922 LptA E84D mutant; assay: microbe, parasite or virus in culture; conditions: Table S9 panel
Method: as §4

[16] = test system: Klebsiella pneumoniae NCTC 13443 LpxC, LpxD mutant; assay: microbe, parasite or virus in culture; conditions: Table S9 panel; other mutation
Method: as §4

[17] = test system: Klebsiella pneumoniae ATCC 43816 LptA I36S mutant; assay: microbe, parasite or virus in culture; conditions: Table S9 panel
Method: as §4

[18] = test system: K. pneumoniae ATCC 43816 LptA Q62L mutant; assay: microbe, parasite or virus in culture; conditions: Table S9 panel
Method: as §4

T1 sequence (P0ADV1 28-159): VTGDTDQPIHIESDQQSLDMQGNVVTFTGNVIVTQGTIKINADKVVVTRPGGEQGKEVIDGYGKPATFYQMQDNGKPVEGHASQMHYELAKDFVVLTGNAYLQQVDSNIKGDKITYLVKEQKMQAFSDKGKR
T2 sequence (P0ADV1 28-159 Q62L): as the sequence (P0ADV1 28-159) above, with Q35L counted along it

Compound | IC50 (LptAm) | Ki (LptAm) | IC50 (LptAmQ62L) | Ki (LptAmQ62L) | Haemolysis % at 0.2 g/L (human red blood cells) | fraction unbound at 30 min, 10 mg/liter (Plasma protein binding [1]) | fraction unbound at 30 min, 10 mg/liter (Plasma protein binding [2]) | MIC E. coli ATCC 25922 Q62L mutant [3] | MIC K. pneumoniae NCTC 13443 (NDM-1) Parent [4] | MIC E. coli ATCC 25922 Parent [5] | MIC K. pneumoniae ATCC 43816 Parent [6] | MIC K. pneumoniae NCTC 13443 (NDM-1) Q62L mutant [7] | IC50 at 48 h (in vitro) | other results
CCCC[C@H](NC(=O)[C@H](CCCNC(=N)N)NC(=O)[C@H](CCN)NC(=O)[C@@H]1CSSC[C@H](NC(=O)[C@H](Cc2ccc(O)cc2)NC(=O)[C@@H](NC(=O)[C@@H](NC(=O)[C@@H]2CCCN2C(=O)[C@@H](NC(=O)[C@@H]2CCCN2C(=O)[C@H](CCCCN)NC(=O)[C@@H](N)CCCCN)C(C)C)[C@@H](C)CC)[C@@H](C)CC)C(=O)N[C@@H](CC(N)=O)C(=O)N[C@@H](CCCNC(=N)N)C(=O)N[C@@H](CCCNC(=N)N)C(=O)N[C@@H]([C@@H](C)O)C(=O)NCC(=O)N[C@@H](CCCCN)C(=O)N1)C(=O)O [Compound 1] (H-KKPVPIIYCNRRTGKC[Dab]R[Nle]-OH; disulfide 9-16) | 0.0066 ± 0.0005 µM | 0.0011 ± 0.0001 µM | 0.0304 ± 0.0088 µM | 0.0205 ± 0.006 µM | 0% | 0.24 | 0.14 | >8 micrograms per milliliter | 0.5 micrograms per milliliter | 0.063 micrograms per milliliter | 0.25 micrograms per milliliter | >8 micrograms per milliliter | 158 µM | –
CC[C@H](C)[C@H](NC(=O)[C@@H](NC(=O)[C@@H]1C[C@@H](O)CN1C(=O)[C@@H](N)C(C)C)[C@@H](C)CC)C(=O)N[C@@H](Cc1ccc(O)cc1)C(=O)N[C@@H]1C(=O)N[C@@H](CC(N)=O)C(=O)N[C@@H](CCCNC(=N)N)C(=O)N[C@@H](CCN)C(=O)N[C@@H]([C@@H](C)O)C(=O)N[C@H](CCN)C(=O)N[C@@H](CCCCN)C(=O)N[C@H](C(=O)N[C@@H](CCN)C(=O)N[C@@H](CCCNC(=N)N)C(=O)N[C@@H](Cc2ccc(O)cc2)C(=O)O)CSSC1(C)C [Compound 4] (H-V[Hyp]IIY[Pen]NR[Dab]T[dDab]KC[Dab]RY-OH; disulfide 6-13) | – | – | – | – | 0% | 0.09 | 0.14 | 0.25 micrograms per milliliter | 1 micrograms per milliliter | 0.063 micrograms per milliliter | 0.25 micrograms per milliliter | 4 micrograms per milliliter | 536 µM | –
CC[C@H](C)[C@H](NC(=O)[C@@H](NC(=O)[C@@H]1C[C@@H](O)CN1C(=O)[C@@H](N)C(C)C)[C@@H](C)CC)C(=O)N[C@@H](Cc1ccc(O)cc1)C(=O)N[C@@H]1C(=O)N[C@@H](CC(N)=O)C(=O)N[C@@H](CCCNC(=N)N)C(=O)N[C@@H](CCN)C(=O)N[C@@H]([C@@H](C)O)C(=O)N[C@H](CCN)C(=O)N[C@@H](CCCCN)C(=O)N[C@H](C(=O)N[C@@H](CCN)C(=O)N[C@@H](CCN)C(=O)N[C@@H](Cc2ccc(O)cc2)C(=O)O)CSSC1(C)C [Compound 5] (H-V[Hyp]IIY[Pen]NR[Dab]T[dDab]KC[Dab][Dab]Y-OH; disulfide 6-13) | 0.0186 ± 0.0011 µM | 0.0031 ± 0.0002 µM | 0.0139 ± 0.0023 µM | 0.0094 ± 0.0015 µM | 0% | 0.18 | 0.13 | 0.25 micrograms per milliliter | 1 micrograms per milliliter | 0.063 micrograms per milliliter | 0.25 micrograms per milliliter | 4 micrograms per milliliter | 1270 µM | MIC Klebsiella pneumoniae NCTC 13443 LptA I36S (2x) [8]: 4 µg/mL (≈ 2.09 µM); MIC Klebsiella pneumoniae ATCC 43816 LapB (1x) [9]: 0.5 µg/mL (≈ 0.261 µM); MIC Klebsiella pneumoniae NCTC 13443 YejM (1x) [10]: 2 µg/mL (≈ 1.04 µM); MIC Escherichia coli ATCC 25922 KdsD (2x) [11]: 0.5 µg/mL (≈ 0.261 µM); MIC Klebsiella pneumoniae ATCC 43816 PglJ, PhnJ, ThiH (1x) [12]: 0.5 µg/mL (≈ 0.261 µM); MIC Klebsiella pneumoniae ATCC 43816 LptA I36N (1x) [13]: 1 µg/mL (≈ 0.522 µM); MIC Escherichia coli ATCC 25922 WT ([5]; Table S9 panel, WT): 0.125 µg/mL (≈ 0.0653 µM); MIC Klebsiella pneumoniae ATCC 43816 LptA L116Q (1x) [14]: 1 µg/mL (≈ 0.522 µM); MIC Escherichia coli ATCC 25922 LptA E84D (1x) [15]: 1 µg/mL (≈ 0.522 µM); MIC Klebsiella pneumoniae NCTC 13443 LpxC, LpxD (1x) [16]: 0.5 µg/mL (≈ 0.261 µM); MIC Klebsiella pneumoniae ATCC 43816 LptA I36S (1x) [17]: 1 µg/mL (≈ 0.522 µM); MIC Klebsiella pneumoniae ATCC 43816 LptA Q62L (4x) [18]: 4 µg/mL (≈ 2.09 µM); MIC Klebsiella pneumoniae NCTC 13443 LptA Q62L (5x) ([7]; Table S9 panel): 8 µg/mL (≈ 4.18 µM)
